Laboratory results reported in ChEMBL document CHEMBL1121877, “Isomeric phenylthioimidazo[1,2-alpha]pyridines as anthelmintics” (1981).

Columns and labels:
Format in all cases: functional
Mus musculus [1] = organism: Mus musculus; assay: Compound (1000 p.p.m.) was tested for percent reduction of Nematospiroides dubius in mice
Mus musculus [2] = organism: Mus musculus; assay: Compound (250 p.p.m.) was tested for percent reduction of Nematospiroides dubius in mice
Mus musculus [3] = organism: Mus musculus; assay: Compound (125 p.p.m.) was tested for percent reduction of Nematospiroides dubius in mice
Mus musculus [4] = organism: Mus musculus; assay: Compound (62.5 p.p.m.) was tested for percent reduction of Nematospiroides dubius in mice
Mus musculus [5] = organism: Mus musculus; assay: Compound (500 p.p.m.) was tested for percent reduction of Nematospiroides dubius in mice

| SMILES | Reduction (Mus musculus [1]) [%] | Reduction (Mus musculus [2]) [%] | Reduction (Mus musculus [3]) [%] | Reduction (Mus musculus [4]) [%] | Reduction (Mus musculus [5]) [%] |
| --- | --- | --- | --- | --- | --- |
| CC(C)OC(=O)Nc1ccc2[nH]c(-c3cscn3)nc2c1 [CAMBENDAZOLE] | 100 | 20 | 0 | 0 | 80 |
| c1ccc2[nH]c(-c3cscn3)nc2c1 [THIABENDAZOLE] | 87 | 0 | 0 | 0 | 47 |
| COC(=O)Nc1nc2cc(Sc3ccccc3)ccc2[nH]1 [FENBENDAZOLE] | – | 97 | 74 | 0 | 100 |
| COC(=O)Nc1cn2cc(Sc3ccccc3)ccc2n1 | – | 98 | 75 | 20 | 100 |
| COC(=O)Nc1cn2cc([S+]([O-])c3ccccc3)ccc2n1 (stereo not given) | – | 100 | 100 | 90 | – |
| COC(=O)Nc1cn2c(Sc3ccccc3)cccc2n1 | 0 | – | – | – | – |
| COC(=O)Nc1cn2ccccc2n1 | 54 | – | – | – | – |
| COC(=O)Nc1cn2ccc(Sc3ccccc3)cc2n1 | 0 | – | – | – | – |
| COC(=O)Nc1cn2cccc(Sc3ccccc3)c2n1 | 0 | – | – | – | – |
